The values below come from patent US5376645A (University of Kansas, priority 1992, dated 1994).

One data set relates to red blood cell. The experiment in a line: Hemolysis of red blood cells (membrane disruption). The class given is cell-based. The text has this:
The mono substituted derivatives caused about the same amount of membrane disruption as the hydroxypropyl derivative.

Data set [1] can be described thus: Phase solubility: association constant with digoxin. The data set is classed as physicochemical. The following applies: 1:1 complex.
A short description of data set [2]: Plasma urea nitrogen (kidney function). The class given is in vivo. The following applies: mice; 24 hrs; n = 4; normal saline control 15.88 ± 1.21. The source says:
Plasma urea nitrogen levels are an indicator of kidney function with higher levels indicating renal damage. […] There is however no statistical difference between our derivatives and the hydroxypropyl derivative.
^(1) SIGMA Urea Nitrogen Procedure No. 640A

The nature of data set [3]: Phase solubility: association constant with testosterone. The class given is physicochemical. The following applies: 1:1 complex.
Data set [4] can be described thus: Phase solubility: association constant with phenytoin. The following applies: 1:1 complex. The data set is classed as physicochemical. The text has this:
Similar results can be seen for progesterone (see Table 3 and FIGS. 5 and 6), phenytoin (see Table 4 and FIGS. 7 and 8), and testosterone (see Table 5 and FIGS. 9 and 10).

Take `OC[C@H]1O[C@@H]2O[C@H]3[C@H](O)[C@@H](O)[C@@H](O[C@H]4[C@H](O)[C@@H](O)[C@@H](O[C@H]5[C@H](O)[C@@H](O)[C@@H](O[C@H]6[C@H](O)[C@@H](O)[C@@H](O[C@H]7[C@H](O)[C@@H](O)[C@@H](O[C@H]8[C@H](O)[C@@H](O)[C@@H](O[C@H]1[C@H](O)[C@H]2O)O[C@@H]8CO)O[C@@H]7CO)O[C@@H]6CO)O[C@@H]5CO)O[C@@H]4CO)O[C@@H]3CO` [β-Cyclodextrin, β-cyclodextrin]: in the data set with red blood cell, the “membrane disruption / percent hemolysis (in words)” value is given as “causing the most membrane disruption”. For the same compound, in data set [1], the “Digoxin association constant K1:1” value came to 28200 M⁻¹. In addition, in data set [2], the “Plasma Urea Nitrogen, PUN + S.D.” value is on record as 160.10 ± 26.16 mg/dL. Besides, the “Testosterone association constant K1:1” value in data set [3] worked out at 17800 M⁻¹. For the same compound, in data set [4], the “Phenytoin association constant K1:1” value stood at 1510 M⁻¹.
